According to patent publication US20140024720A1, “PHARMACEUTICAL COMPOSITION CONTAINING CYCLOBENZAPRINE SUITABLE TO INTRANASAL ADMINISTRATION” (Campiglo Consulting SRL, priority 2011, published 2014):
Counter-ions that a name gives are not always drawn. Like-named read-outs stand apart in the source and are kept apart here.

Tests used:
in vivo = details: rabbit; for AUC(0-inf) / AUC(0-t) / Cmax / Tmax / half-life: male, New Zealand albino, plasma
Protocol: The plasma levels of cyclobenzaprine (CBZ) were determined after a single intranasal dose of 1.5 mg/kg in a volume of 10 μl, and 3.0 mg/kg in a volume of 20 μl, and after a single oral dose of 1.5 mg/kg in New Zealand albino male rabbits.
1. The oral administration was performed with a 0.15% solution, the intranasal administration with a 15% solution.
2. Six male animals/group were treated with a single dose by intranasal or oral route.
3. Fifteen minutes before the drug administration the central artery of the ear was cannulated with a 25-gauge needle catheter and for each animal 7 blood collections at time 0 (TO, before drug administration) and at 15, 30, 60, 90, 120, 180 minutes after drug administration were performed. Three mL of blood sample were collected in heparinized tubes and the volume replaced with a Ringer-Lactate solution. The plasma samples were obtained from blood samples by centrifugation at 3000 g for 5 min. The plasma samples were be stored at −20±2° C. until the LC/MS/MS analysis.
4. Rabbit plasma concentrations of CBZ were determined using a validated LC-MS/MS method in the calibration range of 0.25-300 ng/mL.
Aliquots of 250 μL of rabbit plasma were spiked with 5 μL of internal standard (IS) solution (containing approximately 5000 ng/mL of IS, Imipramine Hydrochloride) in water:methanol (50/50, v/v), after vortex-mixing, 250 μL of borate buffer were added. After vortex-mixing, 3.5 mL of hexane were added. After vortex-mixing for 10 minutes and centrifugation at 10.000 rpm at +4° C. for 10 minutes, aliquots of 3 mL of organic phase were transferred into a single glass tube and dried under vacuum at 40° C. using a Büchi vacuum system. The residues were re-constituted with 100 μL of 20 Mm ammonium acetate buffer solution, 0.1%:acetonitrile (50/50, v/v) solution. The tubes were then capped, vortex-mixed and centrifugated at 4100 rpm at +4° C. for 10 minutes. The final extracts were transferred into an autosampler vial and 4 μL were injected into the LC-MS/MS system.
Calibration curves plot the ratio of the area of the compound and the IS (y) against the analyte concentration (x). A weighted linear regression function (1/x) is used to fit calibration lines and consequently to calculate CBZ concentrations. The lower and upper limits of quantification are 0.25 and 300 ng/mL of plasma samples.

[1] = pH higher than 7.4, opalescence formation
[2] = cited from earlier work
[3] = inhaled or intranasal, 1.5 mg/kg

Compound: CN(C)CCC=C1c2ccccc2C=Cc2ccccc21 [Cyclobenzaprine, 3-(5H-dibenzo[a,d]cyclo-epten-5-yliden)-N,N-dimethyl-1-propanamine hydrochloride]
- AUC(0-inf) (in vivo; [3]): 65.8 ng·h/mL
- AUC(0-t) (in vivo; [3]): 60.1 ng·h/mL
- Cmax (in vivo; [3]): 69.3 ng/mL
- Tmax (in vivo; [3]): 30 min
- half-life (in vivo; [3]): 49.3 min
- AUC(0-inf) (in vivo; inhaled or intranasal, 3 mg/kg): 65.6 ng·h/mL
- AUC(0-t) (in vivo; inhaled or intranasal, 3 mg/kg): 54.6 ng·h/mL
- Cmax (in vivo; inhaled or intranasal, 3 mg/kg): 65.1 ng/mL
- Tmax (in vivo; inhaled or intranasal, 3 mg/kg): 30 min
- half-life (in vivo; inhaled or intranasal, 3 mg/kg): 93.9 min
- AUC(0-inf) (in vivo; po, 1.5 mg/kg): 3.44 ng·h/mL
- AUC(0-t) (in vivo; po, 1.5 mg/kg): 2.08 ng·h/mL
- Cmax (in vivo; po, 1.5 mg/kg): 1.28 ng/mL
- Tmax (in vivo; po, 1.5 mg/kg): 30 min
- half-life (in vivo; po, 1.5 mg/kg): 124 min
- rate of absorption by intranasal route compared with oral route (in vivo): higher
- absorption by intranasal route (in vivo; intranasal): well absorbed
- λz (in vivo; intranasal 1.5 mg/kg, 15% solution): 0.940 h⁻¹
- λz (in vivo; intranasal 3.0 mg/kg, 15% solution): 0.452 h⁻¹
- dose dependence of Cmax and AUC by intranasal route (in vivo; intranasal 1.5 and 3.0 mg/kg): linear with the dose
- λz (in vivo; oral 1.5 mg/kg, 0.15% solution): 0.361 h⁻¹
- tonicity (10% aqueous solution): ipertonic
- tonicity (15% aqueous solution): ipertonic
- NaCl equivalent (aqueous solution containing 5% cyclobenzaprine hydrochloride): 0.88 g-eq di NaCl
- osmolarity (aqueous solution containing 5% cyclobenzaprine hydrochloride, practically isotonic): 400 mOsmol/L
- solubility of cyclobenzaprine base in the buffer solution [1]: not soluble
- plasmatic half time ([2]; absorbed per os, range 8-37 hours): 18 h
- time until effect of a single administration is shown ([2]; after oral taking): one
- duration of effect of a single administration ([2]; oral taking): ≥ 12 h
